The source of these data is patent US20160052898A1, “NOVEL COMPOUNDS” (BAYER PHARMA AKTIENGESELLSCHAFT, priority 2013, published 2016).

Structures can show the parent of a compound that is named as a salt.

Holding throughout (assay type): cell-based
Experiment [1] deals with constitutive active colorectal cancer cell (CRC) Wnt pathway. Kind of experiment: HCT116 Super TopFlash cellular reporter assay (constitutive active Wnt pathway). The conditions noted are these: HCT116 TOP reporter cells, luciferase expression, 36 hours incubation, 50 μM to 15 nM. Summed up: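 HCT116 cells (β-catenin ΔS45) stably carrying Super TopFlash, with a parallel FOP-control line, were plated 24 h ahead. They were exposed 36 h at 37 °C, 5% CO2 to compound from a 50 μM–15 nM, 3.16-fold pre-dilution series in CAFTY buffer (pH 7.4, 2 mM Ca2+, 0.01% BSA). Wnt signalling was read as luciferase luminescence.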
(Reporter assays use an easily measured gene product as a stand-in for the process of interest.)

For experiment [2], the system named is HCT116 FOP control reporter cell line. Kind of experiment: HCT116 FOP control vector reporter assay (non-functional TCF elements). The following applies: Homo sapiens, HCT-116, 36 h, HCT116 FOP control reporter cells, luciferase expression, 36 hours incubation, 50 μM to 15 nM; read-out: HCT116 FOPFlash IC50. Summed up: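 Stable HCT116 line carrying the non-functional FOP luciferase construct, 10000 cells/well plated 24 hrs before. Compounds 50 μM to 15 nM (3.16-fold steps) in CAFTY buffer pH 7.4 with 2 mM Ca2+, 36 hours at 37° C; luciferase luminescence read.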

Another experiment deals with wildtype Wnt pathway. Kind of experiment: HEK293 Super TopFlash cellular reporter assay, Wnt-3a stimulated (wildtype Wnt pathway). The conditions noted are these: Homo sapiens; HEK293 TOP reporter cells, EC50 concentration of recombinant Wnt-3a, 16 hours incubation; read-out: HEK TOP OncoFlash IC50. Summed up: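 Stable HEK293 Super TopFlash and FOP reporter cells stimulated with recombinant human Wnt-3a (2500–5 ng/ml, two-fold steps). Compounds tested 50 μM to 15 nM in 3.16-fold steps in CAFTY buffer pH 7.4 with 2 mM Ca2+ and 0.01% BSA; luciferase read-out.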

For experiment [3], the system named is HEK293 FOP control reporter cell line. Kind of experiment: HEK293 FOP control vector reporter assay. The following applies: Homo sapiens; HEK293 FOP control reporter cells, EC50 concentration of recombinant Wnt-3a, 16 hours incubation; read-out: HEK FOP IC50. The gist of the method: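 Stable HEK293 cells carrying FOP control vector (non-functional TCF sites), 10000 cells/well plated 24 h before, stimulated with recombinant human Wnt-3a at 2500–5 ng/ml in two-fold steps. Compounds from 50 μM to 15 nM (3.16-fold) in CAFTY buffer pH 7.4 with 2 mM Ca2+, 0.01% BSA, run in parallel with TOP line; luciferase read-out.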

Turning to `COc1ccc(NC(=O)c2ccc(-c3cccc(C)c3)cc2)cc1NC(=O)CN1CCOCC1` [Example 71, N-{4-methoxy-3-[(morpholin-4-ylacetyl)amino]phenyl}-3′-methylbiphenyl-4-carboxamide], the IC50 in experiment [1] (Homo sapiens, HCT-116, 36 h) is 2250 nM; in experiment [2], no less than 50000 nM; in the experiment with wildtype Wnt pathway, 2500 nM; in experiment [3] it was 25000 nM.

For `COc1ccc(NC(=O)c2ccc(-c3cccc(C#N)c3)cc2)cc1NC(=O)CN1CCOCC1` [Example 72, 3′-cyano-N-{4-methoxy-3-[(morpholin-4-ylacetyl)amino]phenyl}biphenyl-4-carboxamide], the IC50 in experiment [1] (Homo sapiens, HCT-116, 36 h) was 3750 nM; in experiment [2] it was no less than 50000 nM; in the experiment on wildtype Wnt pathway it was 1300 nM; in experiment [3], no less than 50000 nM.

Take `COc1ccc(NC(=O)c2ccc(-c3cccc(Cl)c3)cc2)cc1NC(=O)CN1CCOCC1` [Example 73, 3′-chloro-N-{4-methoxy-3-[(morpholin-4-ylacetyl)amino]phenyl}biphenyl-4-carboxamide]: the IC50 in experiment [1] (Homo sapiens, HCT-116, 36 h) was 1450 nM; in experiment [2], no less than 50000 nM; in the experiment on wildtype Wnt pathway it was 1500 nM; in experiment [3], 32000 nM.

In the case of `O=C(CN1CCOCC1)Nc1cc(NC(=O)c2ccc(-c3cccc(F)c3)cc2)ccc1OC(F)(F)F` [Example 74, 3′-fluoro-N-{3-[(morpholin-4-ylacetyl)amino]-4-(trifluoromethoxy)phenyl}biphenyl-4-carboxamide], the IC50 in experiment [1] (Homo sapiens, HCT-116, 36 h) was 47 nM; in experiment [2], no less than 50000 nM; in the experiment on wildtype Wnt pathway, 140 nM; in experiment [3], 8300 nM.

Consider `O=C(CN1CCOCC1)Nc1cc(NC(=O)c2ccc(-c3ccc(F)cc3)cc2)ccc1OC(F)(F)F` [Example 75, 4′-fluoro-N-{3-[(morpholin-4-ylacetyl)amino]-4-(trifluoromethoxy)phenyl}biphenyl-4-carboxamide], for which the concentration for half-maximal inhibition (IC50) was 145 nM in experiment [1] (Homo sapiens, HCT-116, 36 h); no less than 50000 nM in experiment [2]; 850 nM in the experiment with wildtype Wnt pathway; 40000 nM in experiment [3].

As for `Nc1ccc(-c2ccc(C(=O)Nc3ccc(OC(F)(F)F)c(NC(=O)CN4CCOCC4)c3)cc2)cc1` [Example 76, 4′-amino-N-{3-[(morpholin-4-ylacetyl)amino]-4-(trifluoromethoxy)phenyl}biphenyl-4-carboxamide], the 50% inhibitory concentration (IC50) in experiment [1] (Homo sapiens, HCT-116, 36 h) was 487 nM; in experiment [2], no less than 50000 nM; in the experiment on wildtype Wnt pathway, 39 nM; in experiment [3], 11000 nM.

Consider `COC(=O)c1ccc(-c2ccc(C(=O)Nc3ccc(OC)c(NC(=O)CN4CCOCC4)c3)cc2)cc1` [Example 79, methyl 4′-({4-methoxy-3-[(morpholin-4-ylacetyl)amino]phenyl}carbamoyl)biphenyl-4-carboxylate], for which the 50% inhibitory concentration (IC50) in experiment [1] (Homo sapiens, HCT-116, 36 h) is 1480 nM; in experiment [2] it was no less than 50000 nM; with wildtype Wnt pathway it was 4100 nM; in experiment [3] it was no less than 50000 nM.

For the molecule `COc1cccc(-c2ccc(C(=O)Nc3ccc(OC)c(NC(=O)CN4CCOCC4)c3)cc2)c1` [Example 80, 3′-methoxy-N-{4-methoxy-3-[(morpholin-4-ylacetyl)amino]phenyl}biphenyl-4-carboxamide], the IC50 was 3300 nM in experiment [1] (Homo sapiens, HCT-116, 36 h); no less than 50000 nM in experiment [2]; 3800 nM in the experiment on wildtype Wnt pathway; no less than 50000 nM in experiment [3].

As to `COc1ccc(NC(=O)c2ccc(-c3cccc(F)c3)cc2)cc1NC(=O)CN1CCOCC1` [Example 81, 3′-fluoro-N-{4-methoxy-3-[(morpholin-4-ylacetyl)amino]phenyl}biphenyl-4-carboxamide], the IC50 in experiment [1] (Homo sapiens, HCT-116, 36 h) is 290 nM; in experiment [2], no less than 50000 nM; in the experiment on wildtype Wnt pathway, 320 nM; in experiment [3] it was 9800 nM.

As for `COc1ccc(NC(=O)c2ccc(-c3ccccc3F)cc2)cc1NC(=O)CN1CCOCC1` [Example 82, 2′-fluoro-N-{4-methoxy-3-[(morpholin-4-ylacetyl)amino]phenyl}biphenyl-4-carboxamide], the IC50 in experiment [1] (Homo sapiens, HCT-116, 36 h) is 325 nM; in experiment [2], no less than 50000 nM; in the experiment on wildtype Wnt pathway it was 1700 nM; in experiment [3] it was no less than 50000 nM.

Turning to `COc1ccc(NC(=O)c2ccc(-c3ccc(N)cc3)cc2)cc1NC(=O)CN1CCOCC1` [Example 83, 4′-amino-N-{4-methoxy-3-[(morpholin-4-ylacetyl)amino]phenyl}biphenyl-4-carboxamide], the IC50 in experiment [1] (Homo sapiens, HCT-116, 36 h) was 319 nM; in experiment [2], no less than 50000 nM; with wildtype Wnt pathway, 760 nM; in experiment [3], no less than 50000 nM.

As for `CCOc1ccc(NC(=O)c2ccc(-c3ccccc3)cc2)cc1NC(=O)CN1CCOCC1` [Example 85, N-{4-ethoxy-3-[(morpholin-4-ylacetyl)amino]phenyl}biphenyl-4-carboxamide], the IC50 in experiment [1] (Homo sapiens, HCT-116, 36 h) is 99.7 nM; in experiment [2], no less than 50000 nM; with wildtype Wnt pathway it was 830 nM; in experiment [3] it was no less than 50000 nM.

As to `COCCOCc1ccc(C(=O)Nc2ccc(-c3ccccc3)cc2)cc1NC(=O)CN1CCOCC1` [Example 86, N-(biphenyl-4-yl)-4-[(2-methoxyethoxy)methyl]-3-[(morpholin-4-ylacetyl)amino]benzamide], the IC50 in experiment [1] (Homo sapiens, HCT-116, 36 h) was 87 nM; in experiment [2] it was no less than 50000 nM; with wildtype Wnt pathway, 610 nM; in experiment [3], no less than 50000 nM.

`O=C(Nc1ccc(-c2ccccc2)cc1)c1ccc(OCc2ccccc2)c(NC(=O)C2(N3CCOCC3)CC2)c1` [Example 88, 4-(benzyloxy)-N-(biphenyl-4-yl)-3-({[1-(morpholin-4-yl)cyclopropyl]carbonyl}amino)benzamide]: the IC50 in experiment [1] (Homo sapiens, HCT-116, 36 h) is 44.8 nM; in experiment [2], no less than 50000 nM; in the experiment with wildtype Wnt pathway it was 93 nM; in experiment [3] it was no less than 50000 nM.

In the case of `CC(=O)NCCCOc1ccc(C(=O)Nc2ccc(-c3ccccc3)cc2)cc1NC(=O)C1(N2CCOCC2)CC1` [Example 90, 4-(3-acetamidopropoxy)-N-(biphenyl-4-yl)-3-({[1-(morpholin-4-yl)cyclopropyl]carbonyl}amino)benzamide], the IC50 in experiment [1] (Homo sapiens, HCT-116, 36 h) is 50 nM; in experiment [2], 27400 nM; in the experiment with wildtype Wnt pathway, 20.6 nM; in experiment [3], 6100 nM.

As for `O=C(Nc1ccc(-c2ccccc2)cc1)c1ccc(OC(F)(F)F)c(NC(=O)C2(N3CCOCC3)CC2)c1` [Example 94, N-(biphenyl-4-yl)-3-({[1-(morpholin-4-yl)cyclopropyl]carbonyl}amino)-4-(trifluoromethoxy)benzamide], the 50% inhibitory concentration (IC50) is 10.9 nM in experiment [1] (Homo sapiens, HCT-116, 36 h); no less than 50000 nM in experiment [2]; 5.09 nM with wildtype Wnt pathway; 7600 nM in experiment [3].

With `COCc1ccc(C(=O)Nc2ccc(-c3ccccc3)cc2)cc1NC(=O)C1(N2CCOCC2)CC1` [Example 95, N-(biphenyl-4-yl)-4-(methoxymethyl)-3-({[1-(morpholin-4-yl)cyclopropyl]carbonyl}amino)benzamide], the IC50 is 4.58 nM in experiment [1] (Homo sapiens, HCT-116, 36 h); no less than 50000 nM in experiment [2]; 16 nM in the experiment on wildtype Wnt pathway; no less than 50000 nM in experiment [3].

With `COCc1ccc(C(=O)Nc2ccc(-c3ccccc3)cc2)cc1NC(=O)C1(N2CCN(C)CC2)CC1` [Example 96, N-(biphenyl-4-yl)-4-(methoxymethyl)-3-({[1-(4-methylpiperazin-1-yl)cyclopropyl]carbonyl}amino)benzamide hydrochloride (1:1)], the IC50 in experiment [1] (Homo sapiens, HCT-116, 36 h) worked out at 34.5 nM; in experiment [2], 8250 nM; in the experiment with wildtype Wnt pathway, 40 nM; in experiment [3], 9600 nM.

Take `O=C(Nc1ccc(-c2ccccc2)cc1)c1ccc(Cl)c(NC(=O)C2(N3CCOCC3)CC2)c1` [Example 97, N-(biphenyl-4-yl)-4-chloro-3-({[1-(morpholin-4-yl)cyclopropyl]carbonyl}amino)benzamide]: the IC50 in experiment [1] (Homo sapiens, HCT-116, 36 h) was 24.2 nM; in experiment [2], no less than 50000 nM; in the experiment on wildtype Wnt pathway it was 250 nM; in experiment [3] it was no less than 50000 nM.

In the case of `O=C(Nc1ccc(-c2ccccc2)cc1)c1ccc(C(F)(F)F)c(NC(=O)C2(N3CCOCC3)CC2)c1` [Example 98, N-(biphenyl-4-yl)-3-({[1-(morpholin-4-yl)cyclopropyl]carbonyl}amino)-4-(trifluoromethyl)benzamide], the IC50 in experiment [1] (Homo sapiens, HCT-116, 36 h) was 7.24 nM; in experiment [2], no less than 50000 nM; in the experiment on wildtype Wnt pathway it was 86 nM; in experiment [3], no less than 50000 nM.

Take `COc1ccc(C(=O)Nc2ccc(-c3ccccc3)cc2)cc1NC(=O)C1(N2CCN(C)CC2)CC1` [Example 100, N-(biphenyl-4-yl)-4-methoxy-3-({[1-(4-methylpiperazin-1-yl)cyclopropyl]carbonyl}amino)benzamide hydrochloride (1:1)]: the IC50 in experiment [1] is 24.8 nM; in experiment [2], 20800 nM; in the experiment on wildtype Wnt pathway it was 90 nM; in experiment [3], 19000 nM.

By IC50 is commonly meant the concentration that inhibits the measured activity by half.
